Measured values: patent US20260021167A1, “COMPOSITIONS AND METHODS FOR TREATING OR PREVENTING NEURODEGENERATIVE DISEASES” (Delaware State University, priority 2022, published 2026)

Key:
PFF-injected old mice [1] = assay: Nesting in PFF-injected mice; type: in vivo, mouse; settings: 10 and/or 50 mg/kg oral, vs PFF only
Protocol: (§1) A mouse model of Parkinson's disease is C57BL/6 male or female mice (50% each) injected with 5 μg of mouse PFF at 12 months old, followed by a treatment below for 6-7 weeks: • 1) without PFF injection, followed by vehicle (control, n=7); • 2) PFF injection, followed by vehicle (PFF only: control, n=8); • 3) PFF injection, followed by daily 10 mg/kg Momordin gavage (n=7-8); • 4) PFF injection, followed by daily 50 mg/kg Momordin gavage (n=7-8).
Nesting. A 5×5 cm cotton nesting patch was placed in a clean cage housing a single animal. On the following day, pictures were taken of the condition of the nesting material utilized and analyzed in a blind manner. The ability of an animal to tear up the cotton nesting material and build a nest dictates the activity and motor coordination levels of the animal. Three dimensionally built nest was given as 5 points as the highest score, and a barely touched nesting patch was considered a low score of 1 point. The points were represented on the graph to show any improvement in nesting capabilities across the groups.

PFF-injected old mice [2] = assay: Hindlimb clasping in PFF-injected mice; type: in vivo, mouse; settings: 10 and/or 50 mg/kg oral, vs PFF only
Protocol: as §1
Hindlimb Clasping. This is often characterized by bat-like posture when mice are picked up by the tail, indicating they are experiencing severe motor deficits. A mouse was placed on a horizontal plane and held at 2 cm from the tail tip, then slowly to the height of 10 cm from the surface. A video was recorded for 15 sec for each trial. A total of 3 trials were taken over 3 consecutive days and analyzed for the time in hindlimb clasping by a blinded rater.

PFF-injected old mice [3] = assay: Pole test in PFF-injected mice; type: in vivo, mouse; settings: 10 and/or 50 mg/kg oral, vs PFF only
Protocol: as §1
Pole Test. All the mice were placed on a vertical pole with their face up and habituated to face down the pole to climb down for 5 consecutive days. The time taken for a mouse to turn and position for the descend was noted, and the latency for climb-down was counted. A mouse falling off or slipping down the pole without turning was considered a failure. Videos of the pole test were taken and analyzed by a blinded rater to record the total climb-down or turn time. Minimal 5 trials were performed for each animal, and the average of 5 trials was considered as the final score for data presentation.

[4] = test system: N27 dopaminergic cell line; assay: In vitro cell death induced by MPP+ or PFF; type: cell-based, rat; settings: MPP+ or PFF-mediated toxic conditions
SENP-1 = biological target: T1, SENP-1 (Rattus norvegicus, UniProt A0A0G2JVG1); assay: Western blot of SENP-1 level in PFF-exposed N27p cells; type: cell-based; settings: PFF exposure, compared with PFF only
T1 construct: endogenous in cells; host or cells: N27p (N27 parental) rat dopaminergic cells
T1 sequence (A0A0G2JVG1 1-672): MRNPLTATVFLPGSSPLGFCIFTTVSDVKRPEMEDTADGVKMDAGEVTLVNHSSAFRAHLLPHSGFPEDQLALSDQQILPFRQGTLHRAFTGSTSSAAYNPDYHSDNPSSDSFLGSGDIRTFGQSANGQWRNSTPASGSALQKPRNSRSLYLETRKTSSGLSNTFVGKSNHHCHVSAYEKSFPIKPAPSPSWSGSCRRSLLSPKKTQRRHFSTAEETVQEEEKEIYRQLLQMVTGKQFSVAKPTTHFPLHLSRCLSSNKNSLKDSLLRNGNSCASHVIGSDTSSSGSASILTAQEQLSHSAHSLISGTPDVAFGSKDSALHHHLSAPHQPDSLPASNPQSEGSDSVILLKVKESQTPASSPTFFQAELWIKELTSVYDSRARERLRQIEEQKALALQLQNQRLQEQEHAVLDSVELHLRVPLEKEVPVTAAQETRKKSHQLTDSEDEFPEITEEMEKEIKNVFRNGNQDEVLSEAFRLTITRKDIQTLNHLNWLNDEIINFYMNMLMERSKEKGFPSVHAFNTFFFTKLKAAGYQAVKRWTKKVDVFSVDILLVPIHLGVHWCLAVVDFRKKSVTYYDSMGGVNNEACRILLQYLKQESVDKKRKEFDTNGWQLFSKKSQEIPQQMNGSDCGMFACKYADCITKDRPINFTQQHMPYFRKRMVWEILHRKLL
Description: A) The RNA interference suppressed the expression level of SENP-1, which enhanced SUMO-1 level. […] One-Way ANOVA, Dunnett's test was applied for statistical analysis in comparison with PFF only (#). *: p<0.05, **: p<0.01, p<0.001 and n.s.: not significant.

[5] = low and high dosages (10 or 50 mg/kg)
N27 cells = assay: ROS level (CellROX deep red) after PFF treatment; type: cell-based, rat; settings: compared to PFF only control
Protocol: ROS Levels and Thioflavin-T Assessment. The reactive oxygen species (ROS) is a released byproduct during oxidative stress. On the other hand, thioflavin-T is an assay used to understand the level of protein aggregation that can be detrimental to cell survival. In order to assess the level of oxidative stress, all the SENP-1 inhibitors treated cells were incubated in media containing 5 μg/mL of the ROS reagent CellROX deep red reagent (C10422, Thermo Fisher Scientific) and 25 μg/mL of thioflavin-T reagent (CAS: 2390-54-7, Acros Organics) at 37° C. for 30 min. The cells were then washed 3 times with warm phosphate-buffered saline (PBS) without Ca^2+ or Mg^2+ (137 mM NaCl, 2.7 mM KCl, 4.3 mM Na2HPO4, and 1.47 mM KH2PO4), and several images from each well were collected using EVOS FL Cell Imaging Systems (Invitrogen, MA, USA). A minimum of 2 wells were dedicated to each group, and the experiments were repeated 3-4 times independently (total replicated: n=8-10/group). The intensity of red fluorescence corresponding to ROS levels and green labels corresponding to protein aggregation was analyzed by blinded raters using ImageJ.

CC1(C)CC[C@]2(C(=O)O)CC[C@]3(C)C(=CC[C@@H]4[C@@]5(C)CC[C@H](O[C@@H]6O[C@H](C(=O)O)[C@@H](O)[C@H](O[C@@H]7OC[C@@H](O)[C@H](O)[C@H]7O)[C@H]6O)C(C)(C)[C@@H]5CC[C@]43C)[C@@H]2C1 [Momordin lc]
nesting (PFF-injected old mice [1]): improves the nesting
hindlimb clasping (PFF-injected old mice [2]): reduces hindlimb clasping
climb-down time in pole tests (PFF-injected old mice [3]): reduces
turn time in pole tests (PFF-injected old mice [3]): reduces
protection against in vitro cell death [4]: protect against in vitro cell death
level of SENP-1 (Western blot) (SENP-1): reduced the level of SENP-1
safety in mice [5]: safe
level of ROS (N27 cells): reduced the level of ROS
